The structures appear in SMILES notation.

This experiment concerns MV-4-11 cells. Description: Gene expression microarray analysis (Affymetrix PrimeView) and GSEA. To be noted: MV-4-11, 48 hours, 1 μM each. The class given is cell-based, human.

In the case of `Nc1ncn([C@@H]2O[C@H](CO)[C@@H](O)[C@H]2O)c(=O)n1` [azacitidine], the “genes up-regulated greater than 2-fold relative to vehicle control” value is reported as 62 genes.

Source of the values: publication PMC5218480 (PLoS ONE, 2017).
